According to ChEMBL document CHEMBL1159080, “Discovery of cyclicsulfonamide derivatives as 11 beta-hydroxysteroid dehydrogenase 1 inhibitors” (Bioorg Med Chem Lett, 2010):

How the values were obtained:
[1] = Half life in rat; format: ADME, organism-based; settings: in vivo
[2] = Half life in human liver microsomes; format: ADME, Microsome
[3] = target: Voltage-gated inwardly rectifying potassium channel KCNH2 (Homo sapiens, UniProt Q12809); test: Inhibition of human ERG
Rattus norvegicus = species on record: Rattus norvegicus; test: Clearance in rat; format: ADME, organism-based; settings: in vivo
[4] = Oral bioavailability in rat; format: ADME, organism-based; settings: in vivo
[5] = Cmax in rat; format: ADME, organism-based; settings: in vivo
[6] = target: T1, 11-beta-hydroxysteroid dehydrogenase type 2 (Homo sapiens) (UniProt P80365); test: Inhibition of human 11beta-HSD2 overexpressed in HEK293 cells at 20 uM by HTRF cortisol assay; format: cell-based
T1 sequence (whole entry): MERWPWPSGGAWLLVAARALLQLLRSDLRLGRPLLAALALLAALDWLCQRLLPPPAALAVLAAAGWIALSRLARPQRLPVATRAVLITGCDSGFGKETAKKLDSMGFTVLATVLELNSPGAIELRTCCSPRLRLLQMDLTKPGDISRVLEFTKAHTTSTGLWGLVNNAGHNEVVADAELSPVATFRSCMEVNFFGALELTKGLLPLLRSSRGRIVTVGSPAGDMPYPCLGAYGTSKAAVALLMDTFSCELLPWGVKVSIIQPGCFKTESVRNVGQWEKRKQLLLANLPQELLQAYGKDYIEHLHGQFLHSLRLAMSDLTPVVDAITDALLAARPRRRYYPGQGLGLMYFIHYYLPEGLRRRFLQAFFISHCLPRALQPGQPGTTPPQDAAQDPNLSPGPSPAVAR

[7] = target: 11-beta-hydroxysteroid dehydrogenase 1 (Mus musculus, UniProt P50172); test: Inhibition of 11beta-HSD1 in mouse C2C12 cells by HTRF cortisol assay; format: cell-based
11-beta-hydroxysteroid dehydrogenase 1 (Mus musculus, UniProt P50172), sequence (P50172 whole entry): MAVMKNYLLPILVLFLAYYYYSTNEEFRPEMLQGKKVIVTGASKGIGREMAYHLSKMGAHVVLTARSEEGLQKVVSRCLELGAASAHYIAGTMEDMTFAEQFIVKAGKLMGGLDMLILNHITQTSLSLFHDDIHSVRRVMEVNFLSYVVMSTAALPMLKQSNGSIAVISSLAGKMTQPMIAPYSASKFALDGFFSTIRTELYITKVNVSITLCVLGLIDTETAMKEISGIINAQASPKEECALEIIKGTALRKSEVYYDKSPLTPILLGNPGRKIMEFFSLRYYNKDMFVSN

[8] = target: 11-beta-hydroxysteroid dehydrogenase 1 (Homo sapiens, UniProt P28845); test: Inhibition of 11beta-HSD1 in human microsomes by HTRF cortisol assay; parameters: species or system Microsome
11-beta-hydroxysteroid dehydrogenase 1 (Homo sapiens, UniProt P28845), sequence (P28845 whole entry): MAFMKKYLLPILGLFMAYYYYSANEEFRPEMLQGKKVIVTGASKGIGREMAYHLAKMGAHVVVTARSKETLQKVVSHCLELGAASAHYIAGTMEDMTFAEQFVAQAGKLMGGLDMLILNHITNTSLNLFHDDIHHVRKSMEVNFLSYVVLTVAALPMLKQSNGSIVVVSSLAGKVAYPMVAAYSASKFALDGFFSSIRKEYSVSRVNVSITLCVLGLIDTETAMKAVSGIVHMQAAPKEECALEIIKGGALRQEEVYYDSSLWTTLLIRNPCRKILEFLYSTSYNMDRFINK

Voltage-gated inwardly rectifying potassium channel KCNH2, sequence (Q12809 whole entry): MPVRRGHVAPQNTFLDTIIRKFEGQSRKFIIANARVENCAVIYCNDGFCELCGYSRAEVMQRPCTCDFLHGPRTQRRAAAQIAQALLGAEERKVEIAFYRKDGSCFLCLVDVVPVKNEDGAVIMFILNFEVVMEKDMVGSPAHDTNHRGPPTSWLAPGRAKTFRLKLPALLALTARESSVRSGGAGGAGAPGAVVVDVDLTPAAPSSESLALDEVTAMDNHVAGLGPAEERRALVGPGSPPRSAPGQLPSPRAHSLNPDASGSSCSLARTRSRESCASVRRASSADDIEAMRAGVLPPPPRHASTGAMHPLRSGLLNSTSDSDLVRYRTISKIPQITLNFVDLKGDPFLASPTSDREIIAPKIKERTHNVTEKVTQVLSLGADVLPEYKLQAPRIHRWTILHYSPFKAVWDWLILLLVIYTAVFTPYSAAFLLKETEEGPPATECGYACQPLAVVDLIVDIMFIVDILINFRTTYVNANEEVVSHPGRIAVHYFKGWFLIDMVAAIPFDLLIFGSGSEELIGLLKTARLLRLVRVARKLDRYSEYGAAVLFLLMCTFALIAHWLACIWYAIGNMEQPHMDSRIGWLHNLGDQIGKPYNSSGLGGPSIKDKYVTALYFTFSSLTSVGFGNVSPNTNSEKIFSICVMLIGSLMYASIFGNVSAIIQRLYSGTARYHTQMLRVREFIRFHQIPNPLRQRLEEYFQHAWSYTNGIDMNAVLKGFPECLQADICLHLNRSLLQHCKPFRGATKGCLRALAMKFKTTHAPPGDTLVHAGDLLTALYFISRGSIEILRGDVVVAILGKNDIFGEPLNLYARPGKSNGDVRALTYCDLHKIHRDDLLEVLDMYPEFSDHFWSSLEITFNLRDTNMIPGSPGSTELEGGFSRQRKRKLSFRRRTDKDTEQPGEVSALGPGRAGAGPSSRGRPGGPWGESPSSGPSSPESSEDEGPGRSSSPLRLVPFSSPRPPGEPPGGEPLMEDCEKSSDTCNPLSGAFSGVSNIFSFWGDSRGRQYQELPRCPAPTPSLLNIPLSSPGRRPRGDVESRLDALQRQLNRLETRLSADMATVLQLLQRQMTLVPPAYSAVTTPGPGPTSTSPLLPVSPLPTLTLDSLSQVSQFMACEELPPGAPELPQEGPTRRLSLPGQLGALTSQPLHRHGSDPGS

| SMILES | IC50 [7] [nM] | IC50 [8] [nM] | also measured |
| --- | --- | --- | --- |
| O=C(CN1C(C(=O)c2ccccc2)=C(O)c2ccccc2S1(=O)=O)c1ccccc1 | 7800 |  | half-life [1]: 5.5 h; half-life [2]: 1.25 h; IC50 [3]: > 100000 nM; CL (Rattus norvegicus): 6.7 mL/min/kg; bioavailability [4]: 48.7%; Cmax [5]: 1100 ng/mL; inhibition [6]: 6% |
| COC(=O)c1ccc(C(=O)CN2C(C(=O)c3ccccc3)=C(O)c3ccccc3S2(=O)=O)cc1 |  | 31 |  |
| N#Cc1ccc(C(=O)CN2C(C(=O)c3ccccc3)=C(O)c3ccccc3S2(=O)=O)cc1 | 9000 | 40 |  |
| O=C(CN1C(C(=O)c2ccccc2)=C(O)c2ccccc2S1(=O)=O)c1ccc([N+](=O)[O-])cc1 |  | 30 |  |
| O=C(O)c1ccc(C(=O)CN2C(C(=O)c3ccccc3)=C(O)c3ccccc3S2(=O)=O)cc1 |  | 720 |  |
| O=C(CN1C(C(=O)c2ccccc2)=C(O)c2ccccc2S1(=O)=O)c1ccc(-c2ccccc2)cc1 |  | 28 |  |
